Test results: patent publication US10238688B2, “Combination therapies for bladder cancer” (GENEDIA BIOTECH CO. LTD., priority 2015, dated 2019)

Tests used:
Wnt pathway = assay: Cignal Finder dual-luciferase pathway reporter, Wnt; type: cell-based, human; design: key to Relative activity, Wnt reporter: firefly/renilla ratio, background (negative control) subtracted; settings: for Relative activity, Wnt reporter: luc/Renluc relative to negative control reporter, single drug at 4 folds vs EH/Ci/Mi combination;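 for digitalized pathway activity, Wnt: code −1 means repressed below 0.5-fold of 5637 cells or no-drug control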
Description: (§1) The pathway analysis was performed with Qiagen's Cignal Finder Pathway Reporter Array systems according to the manufacturer's instructions. The pathway-focused dual-luciferase reporter construct was a mixture of an inducible transcription factor responsive firefly luciferase reporter and constitutively expressing renilla construct. Transcriptional response element (TRE) sequence response elements to each specific transcriptional factor triggered by the different signaling pathways are positioned before the TATA box of firefly luciferase reporter gene. The extent of activity of the reporter reflects the level of activity of the particular signaling pathway. CMV controlled renilla expression vector is co-transfected into the cell as an internal control. Non-inducible reporter construct that lacks the transcriptional factor binding sequence and could not be induced by any transcription factors is used as a negative control. Cells transfected with CMV directed firefly luciferase reporter gene serve as a positive control. Briefly, cells seeded in 6-well plates were transfected with Cignal finder pathway arrays according to the manufacturer's instructions (Qiagen). Then cells were seeded onto 96-well plates. Ci (6000 ng/mL), Mi (800 ng/mL), or EH (1000 ng/mL) and Ci/Mi/EH combination (Ci, 1500 ng/mL, Mi, 800 ng/mL and EH, 1000 ng/m L) were then added to the cells 24 h post-transfection. After 6 h of incubation with the different drugs at 37° C., cells were lysed and a dual luciferase assay (for firefly and renilla luciferase) was performed using a PromegaGloMax 20/20 illuminometer. The firefly luciferase activities were normalized over the renilla luciferase activities after background activity determined by luciferase activities of negative controls was subtracted. A triple test of cell survival under these drug doses was also performed by MTT assay following 18 h incubation at 37° C. […]

ER Stress pathway = assay: Cignal Finder dual-luciferase pathway reporter, ER Stress; type: cell-based, human; settings: for Relative activity, ER Stress reporter: luc/Renluc relative to negative control reporter, single drug at 4 folds vs EH/Ci/Mi combination
Description: as §1

MAPK/ERK pathway = assay: Cignal Finder dual-luciferase pathway reporter, MAPK/ERK; type: cell-based, human; settings: for Relative activity, MAPK/ERK reporter: luc/Renluc relative to negative control reporter, single drug at 4 folds vs EH/Ci/Mi combination
Description: as §1

SV-HUC-1 = type: cell-based
Description: The clinical grade of the chemotherapeutics (NCI Dictionary of Cancer Terms) was provided by the First Affiliated Hospital of Harbin Medical University: Pirarubicin (Pi, Wanle, Shenzhen), Paclitaxel (Pa, Taiji, Sichuan), Adriamycin (Ad, Pfizer, Jiangsu), Epirubicin Hydrochloride (EH, Haizheng, Zhejiang), Hydroxycamptothecin (Hy, Lishizhen, Hubei), Cisplatin (Ci, Haosen, Jiangsu), Gemcitabine (Ge, Haosen, Jiangsu) and Mitomycin (Mi, Haizheng, Zhejiang). The drug induced cell death was determined by a thiazolyl […] (MTT, 490 nm reading) based cell proliferation assay in the cultured cells following treatment by various concentrations of drugs for 72 hours. The relative chemoresistance to each drug of all cell lines was calculated with the lowest IC50 as a reference. The overall chemoresistance of each cell line was described as “chemoresistance index”, the numerator of the total relative IC50 to all the drugs over the number of drugs to rank the overall resistance state of each cell line to the six chemotherapeutics collectively.
The relative IC50 (fold) of each drug of all nine cell lines was normalized to the lowest IC50 in the most sensitive cell line (FIG. 2G), to describe the single drug resistance of cell lines. The overall chemoresistance of each cell line, a “chemoresistance index” (the numerator of the total relative IC50 over the number of drugs) (FIG. 2G) were calculated to rank the overall resistance state of each cell line to this six chemotherapeutics.

Heat Shock pathway = assay: Cignal Finder dual-luciferase pathway reporter, Heat Shock; type: cell-based, human; design: key to Relative activity, Heat Shock reporter: firefly/renilla ratio, background (negative control) subtracted; settings: for Relative activity, Heat Shock reporter: luc/Renluc relative to negative control reporter, single drug at 4 folds vs EH/Ci/Mi combination
Description: as §1, with “Ci (6000 ng/mL), Mi (800 ng/mL), or EH (1000 ng/mL) and Ci/Mi/EH combination (Ci, 1500 ng/mL, Mi, 800 ng/mL and EH, 1000 ng/m L) were then added to the cells 24 h post-transfection.” left out

In the case of `N.N.[Cl][Pt][Cl]` [Ci, (SP-4-2)-diamminedichloroplatinum(II)], the “digitalized pathway activity, Wnt” value (Wnt pathway; 5637 cells) is reported as 0 (null (0) if neither of the above holds), the “relative drug trigged pathway activity over the no-drug level, Wnt” value (Wnt pathway; 5637 cells) is reported as 1.14 fold and the “Relative activity, Wnt reporter” value (Wnt pathway; 5637 cells) is reported as 1.00. For the same molecule, the “relative drug trigged pathway activity over the no-drug level, Wnt” value (Wnt pathway; Biu87 cells) was 0.41 fold, the “Relative activity, Wnt reporter” value (Wnt pathway; Biu87 cells) was 0.69 and the “digitalized pathway activity, Wnt” value (Wnt pathway; H-bc cells) was 0 (null (0) if neither of the above holds). The “relative drug trigged pathway activity over the no-drug level, Wnt” value (Wnt pathway; H-bc cells) was 0.78 fold, the “Relative activity, Wnt reporter” value (Wnt pathway; H-bc cells) was 3.14 and the “digitalized pathway activity, Wnt” value (Wnt pathway; SV-HUC-1 cells) was 0 (null (0) if neither of the above holds). The “relative drug trigged pathway activity over the no-drug level, Wnt” value (Wnt pathway; SV-HUC-1 cells) was 1.25 fold, the “Relative activity, Wnt reporter” value (Wnt pathway; SV-HUC-1 cells) was 1.55 and the “Relative activity, Wnt reporter” value (Wnt pathway; UM-UC-3 cells) was 1.73. The “relative drug trigged pathway activity over the no-drug level, Wnt” value (Wnt pathway; Um-Uc-3 cells) was 0.48 fold, the “relative drug trigged pathway activity over the no-drug level, ER Stress” value (ER Stress pathway; 5637 cells) was 1.82 fold and the “Relative activity, ER Stress reporter” value (ER Stress pathway; 5637 cells) was 47.45. For the same molecule, the “digitalized pathway activity, ER Stress” value (ER Stress pathway; Biu87 cells) was 0 (null (0) if neither of the above holds), the “relative drug trigged pathway activity over the no-drug level, ER Stress” value (ER Stress pathway; Biu87 cells) was 0.83 fold and the “Relative activity, ER Stress reporter” value (ER Stress pathway; Biu87 cells) was 18.10. For the same molecule, the “digitalized pathway activity, ER Stress” value (ER Stress pathway; H-bc cells) was 0 (null (0) if neither of the above holds), the “relative drug trigged pathway activity over the no-drug level, ER Stress” value (ER Stress pathway; H-bc cells) was 0.82 fold and the “Relative activity, ER Stress reporter” value (ER Stress pathway; H-bc cells) was 101.61. The “digitalized pathway activity, ER Stress” value (ER Stress pathway; SV-HUC-1 cells) was 0 (null (0) if neither of the above holds), the “relative drug trigged pathway activity over the no-drug level, ER Stress” value (ER Stress pathway; SV-HUC-1 cells) was 1.12 fold and the “Relative activity, ER Stress reporter” value (ER Stress pathway; SV-HUC-1 cells) was 115.00. The “digitalized pathway activity, ER Stress” value (ER Stress pathway; UM-UC-3 cells) was 0 (null (0) if neither of the above holds), the “Relative activity, ER Stress reporter” value (ER Stress pathway; UM-UC-3 cells) was 67.50 and the “relative drug trigged pathway activity over the no-drug level, ER Stress” value (ER Stress pathway; Um-Uc-3 cells) was 0.83 fold. The “relative drug trigged pathway activity over the no-drug level, MAPK/ERK” value (MAPK/ERK pathway; 5637 cells) was 1.74 fold, the “Relative activity, MAPK/ERK reporter” value (MAPK/ERK pathway; 5637 cells) was 90.77 and the “digitalized pathway activity, MAPK/ERK” value (MAPK/ERK pathway; Biu87 cells) was 0 (null (0) if neither of the above holds). For the same molecule, the “relative drug trigged pathway activity over the no-drug level, MAPK/ERK” value (MAPK/ERK pathway; Biu87 cells) was 0.66 fold, the “Relative activity, MAPK/ERK reporter” value (MAPK/ERK pathway; Biu87 cells) was 321.19 and the “digitalized pathway activity, MAPK/ERK” value (MAPK/ERK pathway; H-bc cells) was 0 (null (0) if neither of the above holds). For the same molecule, the “relative drug trigged pathway activity over the no-drug level, MAPK/ERK” value (MAPK/ERK pathway; H-bc cells) was 0.71 fold, the “Relative activity, MAPK/ERK reporter” value (MAPK/ERK pathway; H-bc cells) was 340.57 and the “relative drug trigged pathway activity over the no-drug level, MAPK/ERK” value (MAPK/ERK pathway; SV-HUC-1 cells) was 1.65 fold. For the same molecule, the “Relative activity, MAPK/ERK reporter” value (MAPK/ERK pathway; SV-HUC-1 cells) was 389.00, the “digitalized pathway activity, MAPK/ERK” value (MAPK/ERK pathway; UM-UC-3 cells) was 0 (null (0) if neither of the above holds) and the “Relative activity, MAPK/ERK reporter” value (MAPK/ERK pathway; UM-UC-3 cells) was 72.05. The “relative drug trigged pathway activity over the no-drug level, MAPK/ERK” value (MAPK/ERK pathway; Um-Uc-3 cells) was 0.51 fold, the “Single drug 4X Cell Survival (%)” value (SV-HUC-1; SV-HUC-1, ng/ml: EH 1000, Ci 6000, Mi 800, Pi 160, Pa 640, Ge 20, EH/Ci/Mi regimen) was 26.21% and the “Cell survival 72 hours” value (SV-HUC-1; SV-HUC-1 cells, Table 4 (A)) was 26.21%. For the same molecule, the “ACS (%)” value (SV-HUC-1; SV-HUC-1 cells, Table 4 (B)) was 26.21%, the “digitalized pathway activity, Heat Shock” value (Heat Shock pathway; 5637 cells) was 0 (null (0) if neither of the above holds) and the “relative drug trigged pathway activity over the no-drug level, Heat Shock” value (Heat Shock pathway; 5637 cells) was 0.65 fold. For the same molecule, the “Relative activity, Heat Shock reporter” value (Heat Shock pathway; 5637 cells) was 9.18, the “relative drug trigged pathway activity over the no-drug level, Heat Shock” value (Heat Shock pathway; Biu87 cells) was 1.52 fold and the “Relative activity, Heat Shock reporter” value (Heat Shock pathway; Biu87 cells) was 2.87. The “digitalized pathway activity, Heat Shock” value (Heat Shock pathway; H-bc cells) was 0 (null (0) if neither of the above holds), the “relative drug trigged pathway activity over the no-drug level, Heat Shock” value (Heat Shock pathway; H-bc cells) was 1.19 fold and the “Relative activity, Heat Shock reporter” value (Heat Shock pathway; H-bc cells) was 16.31. The “digitalized pathway activity, Heat Shock” value (Heat Shock pathway; SV-HUC-1 cells) was 0 (null (0) if neither of the above holds), the “relative drug trigged pathway activity over the no-drug level, Heat Shock” value (Heat Shock pathway; SV-HUC-1 cells) was 0.93 fold and the “Relative activity, Heat Shock reporter” value (Heat Shock pathway; SV-HUC-1 cells) was 36.80. For the same molecule, the “digitalized pathway activity, Heat Shock” value (Heat Shock pathway; UM-UC-3 cells) was 0 (null (0) if neither of the above holds), the “Relative activity, Heat Shock reporter” value (Heat Shock pathway; UM-UC-3 cells) was 3.42 and the “relative drug trigged pathway activity over the no-drug level, Heat Shock” value (Heat Shock pathway; Um-Uc-3 cells) was 0.79 fold.
